Results published in ChEMBL document CHEMBL1201862, “PubChem BioAssay data set” (2004).
Calls of active or inactive are those of the source.

Key:
[1] = target: Dual specificity protein phosphatase 3 (Homo sapiens, UniProt P51452); test: VHR1 inhibitor Ki determination, SAR follow-up, biochemical, colorimetric (AID 2004)
[2] = target: Melanin-concentrating hormone receptor 1 (Homo sapiens, UniProt Q99705); test: Fluorescence-based counterscreen for antagonists of the G-protein coupled receptor 7 (GPR7): cell-based high throughput dose response assay to identify antagonists of the melanin-concentrating hormone receptor 1 (MCHR1).; format: functional
[3] = Luminescence Cell-Based Dose Retest to Confirm Inhibitors of Cancer Stem Cells. [Related pubchem assays (depositor defined):AID2717, AID2721]; format: functional; conditions: Homo sapiens
[4] = target: Neurotensin receptor type 1 (Homo sapiens, UniProt P30989); format: functional;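 also: Image-based confirmatory dose-response assay measuring agonist activity at NTR1; NTR1-expressing U2OS osteosarcoma cells imaged for beta-arrestin GFP spot formation; agonist potency where compounds increase beta-arrestin recruitment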
[5] = target: Cyclin-dependent kinase 5/CDK5 activator 1 (Homo sapiens, UniProt Q00535); test: CDK5/p35 kinase inhibitors, dose response, biochemical, cherry-picked samples, set 2 (AID 504545)
[6] = target: T1, Heat shock 70 kDa protein 1A (Homo sapiens, UniProt P0DMV8); test: Hsp70 inhibitors, probe displacement, primary screen, biochemical, fluorescence polarization (AID 583)
Estrogen receptor beta [7] = target: T2, Estrogen receptor beta (Homo sapiens, UniProt Q92731);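 also: recombinant ER-beta bound to coactivator SRC1 peptide in presence of estradiol agonist; inhibitors block coactivator peptide binding and lower the FRET signal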
Ephrin type-A receptor 4 = Ephrin type-A receptor 4 (Mus musculus, UniProt Q03137); test: inhibitors of EphA4 binding to KYL peptide, primary screen, biochemical, colorimetric, mouse EphA4 (AID 689); format: functional
[8] = target: T3, Zinc finger protein mex-5 (Caenorhabditis elegans, UniProt Q9XUB2); test: MEX-5/TCR-2 RNA interaction inhibitors, dose response, biochemical, C. elegans, fluorescence polarization (AID 1960)
T3 sequence (Q9XUB2 whole entry): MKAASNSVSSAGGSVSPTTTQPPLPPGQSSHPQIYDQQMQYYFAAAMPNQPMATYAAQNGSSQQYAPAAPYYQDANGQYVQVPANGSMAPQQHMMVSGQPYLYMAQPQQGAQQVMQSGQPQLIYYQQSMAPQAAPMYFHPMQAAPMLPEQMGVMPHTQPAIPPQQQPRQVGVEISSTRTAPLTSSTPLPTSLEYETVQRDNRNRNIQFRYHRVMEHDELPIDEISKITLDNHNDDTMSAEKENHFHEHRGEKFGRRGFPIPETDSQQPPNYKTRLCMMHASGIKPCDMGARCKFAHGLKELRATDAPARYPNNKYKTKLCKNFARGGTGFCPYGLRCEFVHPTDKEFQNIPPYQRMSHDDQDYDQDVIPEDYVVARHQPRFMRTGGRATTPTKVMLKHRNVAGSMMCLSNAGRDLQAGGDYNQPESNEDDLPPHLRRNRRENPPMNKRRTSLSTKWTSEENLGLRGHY

[9] = target: T4, Trace amine-associated receptor 1 (Homo sapiens, UniProt Q96RJ0); test: Fluorescence-based cell-based high throughput dose response assay to identify agonists of the human trace amine associated receptor 1 (TAAR1).; format: functional
T4 sequence (Q96RJ0 whole entry): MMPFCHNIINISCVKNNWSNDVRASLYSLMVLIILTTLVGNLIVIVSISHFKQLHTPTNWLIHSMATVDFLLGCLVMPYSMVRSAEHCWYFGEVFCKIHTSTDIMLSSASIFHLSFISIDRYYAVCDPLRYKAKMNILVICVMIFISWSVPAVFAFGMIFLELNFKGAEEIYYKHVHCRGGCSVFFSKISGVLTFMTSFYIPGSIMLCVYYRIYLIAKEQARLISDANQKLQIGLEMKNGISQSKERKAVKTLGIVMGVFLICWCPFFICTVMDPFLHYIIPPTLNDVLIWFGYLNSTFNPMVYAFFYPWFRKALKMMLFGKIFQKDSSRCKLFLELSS

cells [10] = format: functional, cell-based
cells [11] = format: functional, cell-based; remark: listed apart in the source
HeLa = test: HeLa cell cytotoxicity, dose response, cytotoxicity control, 24 h, cherry-picked samples (AID 504726); format: functional, cell-based; conditions: Homo sapiens;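 also: potency for cytotoxicity as loss of luminescence signal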
[12] = target: T5, RNA-binding protein pos-1 (Caenorhabditis elegans, UniProt G5EF15); test: inhibitors of POS-1/mex-3 RNA binding, dose response, biochemical, fluorescence polarization (AID 1964);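 also: purified POS-1 fused to maltose binding protein made in E. coli; potency of compounds blocking POS-1 binding to fluorescent RNA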
T5 sequence (G5EF15 whole entry): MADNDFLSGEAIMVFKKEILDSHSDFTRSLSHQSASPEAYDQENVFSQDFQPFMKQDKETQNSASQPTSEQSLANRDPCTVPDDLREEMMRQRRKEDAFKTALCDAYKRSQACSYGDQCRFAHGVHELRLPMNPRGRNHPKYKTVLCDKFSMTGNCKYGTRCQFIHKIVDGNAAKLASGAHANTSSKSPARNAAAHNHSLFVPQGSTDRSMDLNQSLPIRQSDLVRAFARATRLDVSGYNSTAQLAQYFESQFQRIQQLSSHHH

[13] = target: Mothers against decapentaplegic homolog 3 (Homo sapiens, UniProt P84022); test: SMAD3 transcription factor inhibitors, dose response (AID 715); format: functional
[14] = target: Protein-tyrosine kinase 2-beta (Homo sapiens, UniProt Q14289);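 also: potency of inhibitors of PYK2 kinase phosphorylation of poly-GT substrate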
Bcl-2-like protein 10 = Bcl-2-like protein 10 (Homo sapiens, UniProt Q9HD36); test: displacers of TR3 peptide from Bcl-B, primary screen, selectivity assay for Bfl-1 inhibitor project, biochemical, fluorescence polarization, FITC-TR3 peptide (AID 748);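 also: fluorescence polarization from a fluorescein-labelled TR3 peptide binding purified Bcl-B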
[15] = target: T6, Dual specificity protein phosphatase 6 (Rattus norvegicus, UniProt Q64346); test: MKP-3 phosphatase inhibitors, primary screen, biochemical, rat enzyme, in vitro (AID 425)
T6 sequence (Q64346 whole entry): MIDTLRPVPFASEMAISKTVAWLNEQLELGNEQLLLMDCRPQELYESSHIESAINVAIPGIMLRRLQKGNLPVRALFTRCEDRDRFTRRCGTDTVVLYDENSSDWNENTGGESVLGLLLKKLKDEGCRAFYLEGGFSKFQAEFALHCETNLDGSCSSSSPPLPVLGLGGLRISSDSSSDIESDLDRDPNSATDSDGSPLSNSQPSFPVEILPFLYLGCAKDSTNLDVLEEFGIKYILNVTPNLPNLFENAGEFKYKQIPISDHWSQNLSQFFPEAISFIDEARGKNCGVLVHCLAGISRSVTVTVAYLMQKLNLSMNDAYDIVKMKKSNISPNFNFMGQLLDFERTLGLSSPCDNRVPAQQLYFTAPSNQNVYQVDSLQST

Estrogen receptor beta [16] = target: T2, Estrogen receptor beta; test: ERβ–SRC-3 coactivator interaction inhibitors, confirmation, orthogonal assay, biochemical, ELISA, streptavidin-HRP readout (AID 1060)
[17] = target: T1, Heat shock 70 kDa protein 1A; test: Hsp70 inhibitors, biochemical, TR-FRET (AID 786)
[18] = target: DNA (cytosine-5)-methyltransferase 1 (Homo sapiens, UniProt P26358); test: DNMT1 methyltransferase inhibitors, confirmation, biochemical, fluorescent molecular beacon (AID 602386); format: functional
[19] = target: T4, Trace amine-associated receptor 1; test: Counterscreen for agonists of the human trace amine associated receptor 1 (hTAAR1): Fluorescence-based cell-based high throughput dose response assay to identify hTAAR1 agonist that also desensitize TAAR1 receptor response.; format: functional
Cytochrome P450 2C9 = Cytochrome P450 2C9 (Homo sapiens, UniProt P11712)
[20] = target: Bifunctional protein GlmU (Mycobacterium tuberculosis, UniProt P9WMN3); test: Inhibitors of Mycobacterial Glucosamine-1-phosphate acetyl transferase (GlmU). Secondary screen.; parameters: species or system Mycobacterium tuberculosis H37Rv
ORF 73 = ORF 73 (Human herpesvirus 8, UniProt O40947); test: inhibitors of C-LANA binding to LBS DNA, dose response, biochemical, fluorescence polarization, cherry-picked samples (AID 504725); parameters: species or system Human gammaherpesvirus 8;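 also: fluorescence polarization of a labeled DNA duplex reporting LANA DNA binding; potency is for inhibitors that block LANA binding to the DNA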
[21] = target: T7, Eukaryotic translation initiation factor 2-alpha kinase 3 (Homo sapiens, UniProt Q9NZJ5); test: Dose response cell-based high-throughput screening assay to measure PERK inhibition. [Related pubchem assays: 1416 ]; format: functional
[22] = target: T7, Eukaryotic translation initiation factor 2-alpha kinase 3; test: Counterscreen assay for PERK inhibitors: Dose response cell-based high throughput screening assay to measure inhibition of PERK at 6 hours. [Related pubchem assays: 1522, 1416 ]; format: functional
[23] = Cytotoxicity screening for potential Inhibitors of Bacterial Capsule Biogenesis. [Related pubchem assays (depositor defined):AID488970]; format: functional
Leucine aminopeptidase = target: T8, Leucine aminopeptidase (Plasmodium falciparum 3D7, UniProt Q8IL11); test: P. falciparum M17LAP inhibitors, primary screen, biochemical, fluorogenic H-Leu-NHMec substrate, 1536-well (AID 1619); format: functional
T8 sequence (Q8IL11 whole entry): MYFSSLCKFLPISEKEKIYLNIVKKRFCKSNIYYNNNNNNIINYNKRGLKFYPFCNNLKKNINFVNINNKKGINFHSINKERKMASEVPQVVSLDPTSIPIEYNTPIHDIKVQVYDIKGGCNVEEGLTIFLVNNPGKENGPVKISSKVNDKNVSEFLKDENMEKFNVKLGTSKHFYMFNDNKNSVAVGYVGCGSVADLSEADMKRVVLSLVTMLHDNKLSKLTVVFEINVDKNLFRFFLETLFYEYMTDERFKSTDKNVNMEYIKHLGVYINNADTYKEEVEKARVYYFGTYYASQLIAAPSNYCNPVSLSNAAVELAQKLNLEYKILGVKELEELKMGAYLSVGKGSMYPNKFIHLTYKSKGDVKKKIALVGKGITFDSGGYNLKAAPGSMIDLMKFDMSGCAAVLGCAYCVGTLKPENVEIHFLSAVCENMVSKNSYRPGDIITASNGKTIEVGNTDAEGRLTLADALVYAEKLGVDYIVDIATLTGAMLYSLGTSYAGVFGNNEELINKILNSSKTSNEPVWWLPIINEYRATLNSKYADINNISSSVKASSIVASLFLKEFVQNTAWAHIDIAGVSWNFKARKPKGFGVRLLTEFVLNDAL

[24] = target: T9, Voltage-gated N-type calcium channel alpha-1B subunit/Amyloid beta A4 precursor protein-binding family A member 1 (Homo sapiens, UniProt Q00975+Q02410); test: disruptors of Mint-PDZ/N-type channel peptide interaction – biochemical, HTRF, set 2, SAR follow-up (AID 434980); format: functional
[25] = target: T9, Voltage-gated N-type calcium channel alpha-1B subunit/Amyloid beta A4 precursor protein-binding family A member 1; test: disruptors of Mint-PDZ/N-type channel peptide interaction – biochemical, HTRF, SAR follow-up (AID 2489); format: functional

T2 sequence (Q92731 whole entry): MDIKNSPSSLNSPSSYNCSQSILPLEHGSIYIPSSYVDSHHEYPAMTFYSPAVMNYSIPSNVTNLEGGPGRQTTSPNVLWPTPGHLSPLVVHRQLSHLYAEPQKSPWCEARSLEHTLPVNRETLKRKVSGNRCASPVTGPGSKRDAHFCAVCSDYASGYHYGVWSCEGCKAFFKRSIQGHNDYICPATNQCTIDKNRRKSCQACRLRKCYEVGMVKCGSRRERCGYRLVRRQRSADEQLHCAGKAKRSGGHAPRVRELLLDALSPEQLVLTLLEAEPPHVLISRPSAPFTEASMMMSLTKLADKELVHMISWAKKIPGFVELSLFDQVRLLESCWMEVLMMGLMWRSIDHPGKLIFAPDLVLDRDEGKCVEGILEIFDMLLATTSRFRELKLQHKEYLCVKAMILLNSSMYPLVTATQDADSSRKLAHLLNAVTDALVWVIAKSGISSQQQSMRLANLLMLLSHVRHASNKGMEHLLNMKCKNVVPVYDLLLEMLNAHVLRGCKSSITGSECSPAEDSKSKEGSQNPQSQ
T1 sequence (P0DMV8 whole entry): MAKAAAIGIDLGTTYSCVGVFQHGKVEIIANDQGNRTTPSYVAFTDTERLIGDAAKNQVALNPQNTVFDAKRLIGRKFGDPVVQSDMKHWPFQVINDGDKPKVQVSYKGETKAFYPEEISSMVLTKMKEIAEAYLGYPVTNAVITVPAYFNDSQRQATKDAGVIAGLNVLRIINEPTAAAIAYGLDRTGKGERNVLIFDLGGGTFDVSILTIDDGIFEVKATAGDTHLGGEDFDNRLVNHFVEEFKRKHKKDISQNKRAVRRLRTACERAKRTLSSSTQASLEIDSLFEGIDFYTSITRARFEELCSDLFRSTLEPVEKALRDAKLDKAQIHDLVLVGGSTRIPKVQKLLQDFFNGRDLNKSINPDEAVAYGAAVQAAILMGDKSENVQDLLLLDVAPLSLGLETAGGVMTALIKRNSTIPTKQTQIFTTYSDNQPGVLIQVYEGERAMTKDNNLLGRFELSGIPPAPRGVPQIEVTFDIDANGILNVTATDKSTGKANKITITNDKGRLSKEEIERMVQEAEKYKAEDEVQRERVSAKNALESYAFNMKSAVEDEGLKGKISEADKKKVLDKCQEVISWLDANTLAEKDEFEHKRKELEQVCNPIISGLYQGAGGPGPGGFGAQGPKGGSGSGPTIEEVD
T9 sequence (Q00975 whole entry): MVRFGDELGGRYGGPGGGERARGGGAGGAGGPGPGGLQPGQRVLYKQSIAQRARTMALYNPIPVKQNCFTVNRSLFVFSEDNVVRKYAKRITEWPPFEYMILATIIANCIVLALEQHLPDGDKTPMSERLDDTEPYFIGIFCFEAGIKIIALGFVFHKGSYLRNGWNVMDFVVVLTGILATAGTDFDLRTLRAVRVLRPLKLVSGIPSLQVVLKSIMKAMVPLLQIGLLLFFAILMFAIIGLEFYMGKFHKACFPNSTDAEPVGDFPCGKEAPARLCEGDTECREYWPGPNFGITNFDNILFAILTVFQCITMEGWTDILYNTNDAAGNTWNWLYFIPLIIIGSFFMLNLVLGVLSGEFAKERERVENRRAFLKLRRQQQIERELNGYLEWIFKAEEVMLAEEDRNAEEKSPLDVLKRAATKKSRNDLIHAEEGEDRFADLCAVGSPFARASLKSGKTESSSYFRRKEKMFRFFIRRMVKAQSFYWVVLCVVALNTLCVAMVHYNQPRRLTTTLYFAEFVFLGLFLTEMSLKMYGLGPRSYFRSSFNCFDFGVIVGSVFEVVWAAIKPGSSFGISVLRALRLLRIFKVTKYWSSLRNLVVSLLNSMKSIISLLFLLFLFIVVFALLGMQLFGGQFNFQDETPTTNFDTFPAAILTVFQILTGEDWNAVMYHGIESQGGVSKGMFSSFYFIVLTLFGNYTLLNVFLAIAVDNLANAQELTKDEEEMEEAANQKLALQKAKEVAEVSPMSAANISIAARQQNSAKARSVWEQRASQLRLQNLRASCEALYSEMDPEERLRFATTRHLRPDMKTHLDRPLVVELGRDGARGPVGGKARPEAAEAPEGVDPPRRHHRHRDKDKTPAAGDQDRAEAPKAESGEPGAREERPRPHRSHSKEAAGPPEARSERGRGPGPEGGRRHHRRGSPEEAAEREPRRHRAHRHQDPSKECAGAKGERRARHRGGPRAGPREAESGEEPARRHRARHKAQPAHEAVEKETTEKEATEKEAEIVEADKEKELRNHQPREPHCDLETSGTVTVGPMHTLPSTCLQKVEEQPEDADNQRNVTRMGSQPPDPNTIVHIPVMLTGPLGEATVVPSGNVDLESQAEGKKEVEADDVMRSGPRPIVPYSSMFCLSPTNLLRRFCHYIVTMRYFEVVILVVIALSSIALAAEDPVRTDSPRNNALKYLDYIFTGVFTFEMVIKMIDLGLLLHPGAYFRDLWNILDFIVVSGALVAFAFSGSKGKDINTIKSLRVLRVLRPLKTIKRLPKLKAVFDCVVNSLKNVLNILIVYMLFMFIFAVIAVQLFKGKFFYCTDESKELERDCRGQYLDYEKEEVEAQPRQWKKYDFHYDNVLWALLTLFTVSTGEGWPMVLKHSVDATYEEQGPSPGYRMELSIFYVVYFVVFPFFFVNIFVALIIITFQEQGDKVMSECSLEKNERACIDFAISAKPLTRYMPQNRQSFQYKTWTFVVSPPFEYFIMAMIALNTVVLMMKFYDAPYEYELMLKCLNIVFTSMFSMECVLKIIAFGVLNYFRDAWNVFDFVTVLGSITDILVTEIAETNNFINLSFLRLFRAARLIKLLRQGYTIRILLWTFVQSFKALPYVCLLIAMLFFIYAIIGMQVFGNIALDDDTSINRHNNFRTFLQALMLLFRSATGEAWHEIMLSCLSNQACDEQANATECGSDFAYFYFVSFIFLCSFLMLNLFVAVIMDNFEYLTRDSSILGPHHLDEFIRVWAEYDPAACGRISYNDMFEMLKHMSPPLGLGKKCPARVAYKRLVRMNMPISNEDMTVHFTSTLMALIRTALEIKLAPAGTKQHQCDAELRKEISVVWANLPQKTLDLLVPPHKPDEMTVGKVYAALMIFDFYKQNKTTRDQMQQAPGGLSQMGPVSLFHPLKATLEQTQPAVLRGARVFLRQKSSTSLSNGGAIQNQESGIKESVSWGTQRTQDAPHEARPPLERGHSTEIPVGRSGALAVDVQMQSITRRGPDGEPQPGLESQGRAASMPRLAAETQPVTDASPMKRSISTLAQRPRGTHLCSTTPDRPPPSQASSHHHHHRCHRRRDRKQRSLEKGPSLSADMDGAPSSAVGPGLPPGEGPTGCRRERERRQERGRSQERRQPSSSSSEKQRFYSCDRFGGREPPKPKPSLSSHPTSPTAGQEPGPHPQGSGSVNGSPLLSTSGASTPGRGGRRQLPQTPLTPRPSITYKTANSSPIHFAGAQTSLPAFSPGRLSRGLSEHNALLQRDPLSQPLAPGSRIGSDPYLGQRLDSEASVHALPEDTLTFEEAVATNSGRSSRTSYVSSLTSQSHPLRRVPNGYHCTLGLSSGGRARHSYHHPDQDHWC
T9 sequence (Q02410 whole entry): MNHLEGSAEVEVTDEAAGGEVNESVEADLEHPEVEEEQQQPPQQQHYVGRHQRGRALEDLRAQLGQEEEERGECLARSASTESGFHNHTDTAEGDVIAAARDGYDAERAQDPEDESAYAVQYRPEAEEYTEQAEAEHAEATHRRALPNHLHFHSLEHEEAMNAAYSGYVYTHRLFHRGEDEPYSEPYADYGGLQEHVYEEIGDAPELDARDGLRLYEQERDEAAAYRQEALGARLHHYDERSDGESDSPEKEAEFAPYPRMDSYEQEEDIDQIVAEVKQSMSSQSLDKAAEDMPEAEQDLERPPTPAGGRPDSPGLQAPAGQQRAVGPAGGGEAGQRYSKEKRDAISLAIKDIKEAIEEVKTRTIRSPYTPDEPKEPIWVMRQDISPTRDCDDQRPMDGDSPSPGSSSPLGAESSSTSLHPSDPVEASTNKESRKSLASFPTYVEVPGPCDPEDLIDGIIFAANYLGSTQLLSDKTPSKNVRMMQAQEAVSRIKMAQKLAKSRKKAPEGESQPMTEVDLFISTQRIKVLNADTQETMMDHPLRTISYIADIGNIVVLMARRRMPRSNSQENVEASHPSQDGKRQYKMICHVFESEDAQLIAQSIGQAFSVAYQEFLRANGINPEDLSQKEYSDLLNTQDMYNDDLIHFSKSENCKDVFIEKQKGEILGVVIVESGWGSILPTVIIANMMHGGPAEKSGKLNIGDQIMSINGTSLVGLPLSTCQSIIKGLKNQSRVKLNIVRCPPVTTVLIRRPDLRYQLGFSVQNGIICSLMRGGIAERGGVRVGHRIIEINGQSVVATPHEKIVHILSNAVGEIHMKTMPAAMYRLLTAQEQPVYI
Sequence of Melanin-concentrating hormone receptor 1 (Q99705 whole entry): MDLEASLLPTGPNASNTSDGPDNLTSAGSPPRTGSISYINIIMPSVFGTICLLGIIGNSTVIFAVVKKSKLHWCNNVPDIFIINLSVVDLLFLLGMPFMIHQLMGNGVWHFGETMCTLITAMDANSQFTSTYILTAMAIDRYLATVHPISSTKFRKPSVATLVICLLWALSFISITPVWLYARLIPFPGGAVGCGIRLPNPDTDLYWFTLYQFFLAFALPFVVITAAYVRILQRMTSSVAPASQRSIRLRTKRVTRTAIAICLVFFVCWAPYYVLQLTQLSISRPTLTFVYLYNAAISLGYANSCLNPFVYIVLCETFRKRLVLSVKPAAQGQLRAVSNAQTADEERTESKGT
Sequence of Dual specificity protein phosphatase 3 (P51452 whole entry): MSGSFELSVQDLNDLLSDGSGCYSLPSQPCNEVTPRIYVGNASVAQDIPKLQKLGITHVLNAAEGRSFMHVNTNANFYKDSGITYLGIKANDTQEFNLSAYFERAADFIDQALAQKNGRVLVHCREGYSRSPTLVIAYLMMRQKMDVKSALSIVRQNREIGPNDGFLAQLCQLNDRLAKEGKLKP

For `Cc1ccc(-c2ccccc2)n1-c1ccc(O)c(C(=O)O)c1`, the Ki [1] was 80.3 µM (inactive).
With `N=C(N)NS(=O)(=O)c1ccc(NC(=S)NC(=O)Cc2ccc(Cl)cc2)cc1` the IC50 [2] was 21.8 µM (not active).
In the case of `CC(C)CN1C(=O)/C(=C/c2c[nH]nc2-c2ccccc2)SC1=S`, the AC50 [3] is reported as 2.59 µM (active) and the EC50 [4] is reported as 15 µM (active).
With `CCC(C)(C)C1CCc2n[nH]c(C(=O)NCCN3CCOCC3)c2C1` (stereo unspecified) the AC50 [5] was 20.9 µM (active).
For `CC1(C)CCCN(C(=O)c2coc(=O)c(Br)c2)C1`, the IC50 [6] was 13.1 µM (active), the IC50 (Estrogen receptor beta [7]) was < 1.56 µM (active) and the IC50 (Ephrin type-A receptor 4) was 8.98 µM (active). For the same molecule, the EC50 [8] was 68.3 µM (active), the EC50 [9] was 827 nM (active) and the IC50 (cells [10]) was > 29.9 µM (inactive). For the same molecule, the EC50 (cells [11]) was > 29.9 µM (inactive), the AC50 (HeLa) was 96.3 µM (active) and the EC50 [12] was > 300 µM (not active). The IC50 [13] was 14 µM (active), the IC50 [14] was 5.23 µM (active) and the IC50 (Bcl-2-like protein 10) was 6.54 µM (active). For the same molecule, the IC50 [15] was > 10 µM (not active), the IC50 (Estrogen receptor beta [16]) was 93.2 µM (not active) and the IC50 [17] was 8.32 µM (active). For the same molecule, the IC50 [18] was 2.92 µM (active), the IC50 [19] was 2.41 µM (active) and the AC50 (Cytochrome P450 2C9) was 28.2 µM (inconclusive). For the same molecule, the IC50 [20] was 21.2 µM (active) and the AC50 (ORF 73) was 71.2 µM (active).
With `CC(C)C(=O)NNc1ccc(C(F)(F)F)cn1` the EC50 [21] was > 55.7 µM (not active) and the EC50 [22] was > 55.7 µM (not active).
For `CC1(C(=O)O)CCC(C(=O)Nc2ccc3ccccc3c2)C1(C)C` (stereo unspecified), the CC50 [23] was > 100 µM (active) and the IC50 (Leucine aminopeptidase) was 12.5 µM (active).
For `O=C(NCCc1ccncc1)c1cc(-c2ccco2)nc2ccccc12`, the IC50 [24] was > 56.8 µM (inactive) and the IC50 [25] was > 56.8 µM (inactive).
